The target of this assay is T1, Nav1.7 (Homo sapiens, UniProt Q15858).
T1 construct: expressed in transfected cells; host or cells: HEK293T
The experiment in a line: Recovery from fast inactivation (repriming) of Nav1.7. The assay is classed as cell-based. The conditions noted are these: 0.2 μM; at –100 mV; control 6.42 ± 0.85 ms; P < 0.05 paired t-test; mean ± SEM, n = 6–11 cells. An excerpt:
The cDNA genes encoding rat Nav1.4 and human Nav1.7 were subcloned into vectors pRGB4 and pcDNA3.1-mod, respectively. Mutations of rNav1.4 (N655D, Q657E, and N655D/Q657E) and hNav1.7 (D816N, E818Q, and D816N/E818Q) were constructed using the Gene Tailor Site-Directed Mutagenesis system (Invitrogen, Carlsbad, CA, United States), according to the manufacturer’s instructions. Nav1.2–Nav1.7 and mutant plasmids together with eGFP were transiently transfected into HEK293T cells while Nav1.8 together with eGFP was transiently transfected into ND7/23 cells by Lipofectamine 2000 (Invitrogen, Carlsbad, CA, United States). […] Cells with green fluorescent protein fluorescence were selected for whole-cell patch-clamp recordings 24 h after transfection.
Whole-cell patch-clamp recordings were performed at room temperature (20–25°C) using an EPC 10 USB Patch Clamp Amplifier (HEKA, Elektronik, Lambrecht, Germany). […] Data was analyzed by software Igo Pro 6.10A (WaveMetrics, Lake Oswego, OR, United States), SigmaPlot 10.0 (Sigma-Aldrich, St. Louis, MO, United States), OriginPro 8 (OriginLab Corp., Northampton, MA, United States), and GraphPad Prism 5 (GraphPad Software, San Diego, CA, United States). […]
Fast inactivation time constants were calculated by fitting current decay traces with a single exponential function using the I–V protocol described above. […]

The structures appear in SMILES notation. Where a SMILES comes first, the peptide text is derived from it. Bridges are numbered along the chain shown (N, C = ends).

T1 sequence (O60939 30-215): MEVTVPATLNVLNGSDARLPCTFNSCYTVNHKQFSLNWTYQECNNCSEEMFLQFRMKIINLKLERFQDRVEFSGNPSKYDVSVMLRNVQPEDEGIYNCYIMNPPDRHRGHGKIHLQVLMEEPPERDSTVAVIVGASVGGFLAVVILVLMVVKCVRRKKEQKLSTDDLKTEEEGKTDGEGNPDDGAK
T1 sequence (Q15858 other isoform, or with tags, fused parts or gaps): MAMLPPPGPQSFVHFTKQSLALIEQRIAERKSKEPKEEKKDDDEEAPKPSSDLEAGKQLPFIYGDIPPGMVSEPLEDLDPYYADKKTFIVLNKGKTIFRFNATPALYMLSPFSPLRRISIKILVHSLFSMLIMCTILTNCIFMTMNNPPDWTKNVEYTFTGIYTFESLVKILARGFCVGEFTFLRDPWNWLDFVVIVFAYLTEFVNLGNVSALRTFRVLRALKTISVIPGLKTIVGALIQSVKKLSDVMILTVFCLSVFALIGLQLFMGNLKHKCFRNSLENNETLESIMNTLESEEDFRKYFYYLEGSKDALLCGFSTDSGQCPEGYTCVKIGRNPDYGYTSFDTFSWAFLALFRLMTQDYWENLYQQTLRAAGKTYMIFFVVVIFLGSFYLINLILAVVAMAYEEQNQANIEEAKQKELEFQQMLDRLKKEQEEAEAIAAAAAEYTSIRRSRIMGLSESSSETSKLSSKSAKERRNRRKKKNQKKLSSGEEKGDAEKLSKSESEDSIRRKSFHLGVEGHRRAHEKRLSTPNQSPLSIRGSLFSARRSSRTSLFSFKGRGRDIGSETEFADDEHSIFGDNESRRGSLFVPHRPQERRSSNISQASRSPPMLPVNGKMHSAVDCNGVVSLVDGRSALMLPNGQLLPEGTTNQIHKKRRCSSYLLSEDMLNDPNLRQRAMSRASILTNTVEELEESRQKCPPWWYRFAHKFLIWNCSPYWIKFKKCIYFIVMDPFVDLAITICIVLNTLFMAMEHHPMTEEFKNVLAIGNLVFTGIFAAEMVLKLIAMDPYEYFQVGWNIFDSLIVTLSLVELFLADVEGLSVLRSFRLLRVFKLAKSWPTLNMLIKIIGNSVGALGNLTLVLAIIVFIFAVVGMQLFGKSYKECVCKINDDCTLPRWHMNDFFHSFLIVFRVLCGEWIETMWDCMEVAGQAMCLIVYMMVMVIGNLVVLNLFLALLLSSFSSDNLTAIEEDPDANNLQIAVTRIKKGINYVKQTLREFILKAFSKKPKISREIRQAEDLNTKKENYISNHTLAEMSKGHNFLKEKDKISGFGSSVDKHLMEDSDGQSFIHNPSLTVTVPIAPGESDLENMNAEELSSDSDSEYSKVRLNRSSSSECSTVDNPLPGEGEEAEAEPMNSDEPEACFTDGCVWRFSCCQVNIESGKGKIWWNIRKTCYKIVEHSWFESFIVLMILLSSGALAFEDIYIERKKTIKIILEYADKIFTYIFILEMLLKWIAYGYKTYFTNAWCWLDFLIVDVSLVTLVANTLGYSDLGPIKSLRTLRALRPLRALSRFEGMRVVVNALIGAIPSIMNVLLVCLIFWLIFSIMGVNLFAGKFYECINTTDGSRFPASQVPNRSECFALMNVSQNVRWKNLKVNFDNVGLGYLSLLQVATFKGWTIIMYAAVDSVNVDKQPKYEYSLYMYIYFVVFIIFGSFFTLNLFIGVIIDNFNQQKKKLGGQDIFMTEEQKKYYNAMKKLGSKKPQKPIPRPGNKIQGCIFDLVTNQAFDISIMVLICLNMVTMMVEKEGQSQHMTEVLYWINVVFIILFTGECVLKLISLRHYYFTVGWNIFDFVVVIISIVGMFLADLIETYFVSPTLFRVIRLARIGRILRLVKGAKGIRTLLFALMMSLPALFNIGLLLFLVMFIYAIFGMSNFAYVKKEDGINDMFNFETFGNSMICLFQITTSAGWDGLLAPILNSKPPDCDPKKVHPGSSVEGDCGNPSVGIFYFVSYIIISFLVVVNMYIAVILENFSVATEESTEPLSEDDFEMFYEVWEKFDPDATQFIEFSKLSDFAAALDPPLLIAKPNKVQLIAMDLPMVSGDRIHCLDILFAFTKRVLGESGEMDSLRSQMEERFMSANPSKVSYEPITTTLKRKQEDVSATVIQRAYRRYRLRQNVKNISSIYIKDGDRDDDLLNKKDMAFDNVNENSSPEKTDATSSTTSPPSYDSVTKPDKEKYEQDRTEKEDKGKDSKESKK
T1 sequence (Q07699 19-218, further chain): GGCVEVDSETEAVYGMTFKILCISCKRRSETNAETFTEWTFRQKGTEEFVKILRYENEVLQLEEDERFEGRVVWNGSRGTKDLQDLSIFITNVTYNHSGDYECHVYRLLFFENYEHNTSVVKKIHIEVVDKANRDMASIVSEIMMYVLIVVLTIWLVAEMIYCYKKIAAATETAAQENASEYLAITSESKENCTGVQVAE

In the case of `CC(C)C[C@H](NC(=O)[C@H](CC(=O)O)NC(=O)[C@H](Cc1ccc(O)cc1)NC(=O)[C@H](CCCCN)NC(=O)[C@@H]1CSSC[C@@H]2NC(=O)[C@H](CCCCN)NC(=O)[C@H](CC(=O)O)NC(=O)[C@H](CC(N)=O)NC(=O)[C@H](CO)NC(=O)[C@@H]3CCCN3C(=O)[C@H](CC(N)=O)NC(=O)[C@@H]3CSSC[C@H](NC(=O)[C@H](C(C)C)NC(=O)[C@H](CC(C)C)NC(=O)[C@H](CO)NC(=O)[C@H](CO)NC(=O)[C@H](CO)NC(=O)[C@H](CCCCN)NC(=O)[C@H](CSSC[C@H](NC(=O)[C@H](C)N)C(=O)N[C@@H](CC(C)C)C(=O)NCC(=O)N[C@@H](Cc4ccccc4)C(=O)NCC(=O)N[C@@H](CCC(=O)O)C(=O)N[C@@H](CCCCN)C(=O)N3)NC2=O)C(=O)N[C@@H](CO)C(=O)N[C@@H](CCC(N)=O)C(=O)N[C@@H](CCCCN)C(=O)N[C@@H](Cc2c[nH]cn2)C(=O)N[C@@H](CCCCN)C(=O)N[C@@H](Cc2c[nH]c3ccccc23)C(=O)N1)C(=O)O` [Ca2a] (H-ACLGFGEKCNPSNDKCCKSSSLVCSQKHKWCKYDL-OH; disulfide 2-17, 9-24, 16-31 (inferred); N-terminus and C-terminus assumed), the “τ of recovery from fast inactivation at Nav1.7” value is on record as 8.93 ± 1.62 ms.

Values taken from PMC6198068, “Discovery of a Novel Nav1.7 Inhibitor From Cyriopagopus albostriatus Venom With Potent Analgesic Efficacy” (Frontiers in Pharmacology, 2018).
